Data: article PMC3701073, “The Mode of Inhibitor Binding to Peptidyl-tRNA Hydrolase: Binding Studies and Structure Determination of Unbound and Bound Peptidyl-tRNA Hydrolase from Acinetobacter baumannii” (PLoS ONE, 2013)

Biological target: T1, peptidyl-tRNA hydrolase from Acinetobacter baumannii (AbPth) (Acinetobacter baumannii, UniProt D0C9L6)
T1 construct: gene pth; full length, 193 residues (Met1-Ala193), N-terminal 6xHis tag (pET-28a, NdeI/XhoI; cleavage not mentioned), E. coli BL21(DE3)
T1 sequence (D0C9L6 1-193): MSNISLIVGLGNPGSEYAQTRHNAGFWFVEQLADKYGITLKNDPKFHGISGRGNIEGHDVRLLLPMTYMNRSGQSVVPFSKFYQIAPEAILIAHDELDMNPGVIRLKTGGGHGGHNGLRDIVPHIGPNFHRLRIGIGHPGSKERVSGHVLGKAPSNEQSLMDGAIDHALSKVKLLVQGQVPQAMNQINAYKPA
Assay: intrinsic fluorescence quenching (Scatchard)
Format: binding

SMILES | Kd [nM]
O=c1ccn([C@@H]2O[C@H](CO)[C@@H](O)[C@H]2O)c(=O)[nH]1 [uridine] | ~2.11
Nc1ccn([C@@H]2O[C@H](CO)[C@@H](O)[C@H]2O)c(=O)n1 [cytidine] | 4.79
